# In patent US20210371817A1, “COMPOSITIONS AND METHODS FOR PRECISE PATTERNING OF POSTERIOR NEUROECTODERM FROM HUMAN PLURIPOTENT STEM CELLS” (WISCONSIN ALUMNI RESEARCH FOUNDATION, priority 2013, published 2021):
# B1: FGF17: fibroblast growth factor isoform used instead of FGF8b (protein, UniProt O60258 23-216, looked up)
# Fibroblast growth factor 17: TQGENHPSPNFNQYVRDQGAMTDQLSRRQIREYQLYSRTSGKHVQVTGRRISATAEDGNKFAKLIVETDTFGSRVRIKGAESEKYICMNKRGKLIGKPSGKSKDCVFTEIVLENNYTAFQNARHEGWFMAFTRQGRPRQASRSRQNQREAHFIKRLYQGQLPFPNHAEKQKQFEFVGSAPTRRTKRTRRPQPLT
# B2: FGF18: fibroblast growth factor isoform used instead of FGF8b (protein, UniProt O76093 28-207, looked up)
# Fibroblast growth factor 18: EENVDFRIHVENQTRARDDVSRKQLRLYQLYSRTSGKHIQVLGRRISARGEDGDKYAQLLVETDTFGSQVRIKGKETEFYLCMNRKGKLVGKPDGTSKECVFIEKVLENNYTALMSAKYSGWYVGFTKKGRPRKGPKTRENQQDVHFMKRYPKGQPELQKPFKYTTVTKRSRRIRPTHPA
# Assays:
# Format in all cases: cell-based, human
# [1] = tested on: neurally differentiating hPSC cultures; test: Alternative FGF isoforms in HOX patterning protocol (flow cytometry, RT-PCR); conditions: for Sox2 and T (Brachyury) expression: FGF with CHIR, flow cytometry; for Hox1-5 paralog activation: two days of FGF/CHIR treatment, RT-PCR
# Protocol: (FIG. 6A) Timeline of differentiation. […] (FIG. 6H) Agarose gel analysis for HOXgene expression after two days of FGF/CHR treatment in the protocol outlined in (FIG. 6A).
# Specifically, FGF8a, 8b, and 8f, FGF17, FGF18, and FGF2 were used to execute our HOX patterning protocol on concurrent neurally differentiating hPSC cultures. The ability of alternative FGFs to recapitulate the effects of FGF8b was assessed by their ability to maintain a Sox2^+/T^+ neuromesodermal state while also inducing a similar rate of sequential HOXgene expression. Post FGF/CHIR addition, flow cytometry assays for Sox2 and T were performed, and the rate of sequential HOXgene expression was assessed by RT-PCR for a select panel of HOXgenes on collected mRNA samples.
# [2] = tested on: neuromesodermal progenitors; test: Neuroectoderm or mesoderm fate transition of neuromesodermal progenitors by flow cytometry
# Protocol: (§1) Assessment of neuroectoderm or mesoderm fate transition by flow cytometry. Grey histogram, IgG control; red histogram, antigen of interest. Data are presented as mean±standard deviation calculated from two biological replicates. (FIG. 8B) For experiments in panels FIGS. 8C-8F, neuromesodermal propagation was halted by removing FGF8b/CHIR 99021/GDF11 and adding RA. Assays were conducted after 4 days of RA treatment. (FIG. 8C) HOX profiles generated after RA treatment. Each gene is normalized to its maximum expression. Error bars are standard deviation calculated from duplicate reactions. (FIG. 8D) HoxB4 and HoxD10 expression in neuroepithelial cultures after RA treatment. Scale bars, 100 m. (FIG. 8E) Purity of Sox2, Pax6, HoxB4, and HoxD10 after 4 days of RA treatment. Sox2, Pax6, and HoxB4 were quantified using flow cytometry and HoxD10 was quantified by manual counting of dissociated cells ([…]). Error bars are standard deviation calculated from at least two biological replicates. […] (FIG. 8F) Motor neuron differentiation at cervical, thoracic, and lumbar spinal cord depths, where the motor neuron precursors show region-specific patterns of FoxP1, Isl1, and Hb9 co-expression. (FIG. 8G) Neuronal maturation from cervical, thoracic, and lumbar patterned NSCs, as assessed by immunocytochemistry (top panel; DAPI (blue) is overlaid in all images; Scale bars, 20 m) and RT-PCR (50 cycles; bottom panel).
# (§2) Flow cytometry. Flow cytometry was conducted as described in the Examples above. Primary antibodies against Sox2 (mouse; 1:1000; Millipore), brachyury (goat; 1:200; R&D Systems), Pax6 (mouse; 1:200; DSHB), and HoxB4 (rat; 1:50; DSHB) were utilized. Samples were run on a FACSCaliber (BD Biosciences) and data were analyzed using Cyflogic software. Positive events were quantified by gating above the top 1% of species-matched IgG controls.
# We next evaluated the transition of neuromesodermal progenitors to definitive neural progenitors. RA secreted from somites in response to declining FGF signaling elicits dorsal/ventral patterning and expression of the neuroectoderm marker Pax6 in vivo^16, 26, which led us to suspect RA serves as both the neuroectoderm fate switch and HOX ‘stop signal’. We first investigated the ability of RA to initiate neuroectoderm specification from neuromesodermal progenitors. […] At any point in neuromesodermal differentiation, the addition of RA generated highly pure (>83%) Pax6^+ neuroectoderm (FIGS. 8B-8E and FIGS. 9A-9C).
# NSC cultures = test: Hox protein expression in NSC cultures after RA treatment (immunocytochemistry, flow cytometry)
# Protocol: as §1
# FIGS. 9A-9C (FIG. 9A) provides additional data showing that RA induces a neuroectodermal fate and halts colinear HOX activation, using the neural differentiation scheme shown in FIG. 8B and representative hindbrain cultures assessed by qPCR. (FIG. 9B) Representative hindbrain cultures assessed by immunocytochemistry. (FIG. 9C) Representative hindbrain cultures assessed by flow cytometry. All data are presented as mean±S.D. and qPCR data are normalized to the time point of maximum expression for each gene. For the hindbrain cultures, HoxB1 and HoxB4 were quantified by immunocytochemistry relative to DAPI+ nuclei, while Sox2 and Pax6 were quantified by flow cytometry. Scale bars, 100 m.
# as §2
# Immunocytochemistry. Immunocytochemistry was conducted as previously described. […]
# H9 ishcat2 line = test: qPCR gene expression in H9 ishcat2 line (doxycycline-inducible β-catenin shRNA)
# Protocol: Cell lines were passaged for differentiation on day −1 for all experiments (see Example 4 for details). (FIG. 4A) Timeline of H9 hESC differentiation corresponding to panels (FIG. 4B) and (FIG. 4C). RA, 1 μM; CHIR 99021, 3 μM; FGF8b, 100 ng/ml. (FIG. 4B) Gene expression analysis by RT-PCR. Control sample is E6 medium alone. (FIG. 4C) qPCR analysis at day 5 of differentiation normalized to the morphogen treatment that yielded maximum expression. Statistical significance was calculated using the Student's unpaired t-test relative to the sample with maximum expression (*, p<0.005; **, p<0.001). (FIG. 4D) qPCR analysis of gene expression at day 2 using the H9 ishcat2 line in the presence or absence of doxycycline (2 μg/ml) added 3 days prior to morphogen treatment. Data are normalized to doxycycline-free samples for each respective morphogen and statistical significance was calculated using the Student's unpaired t-test (*, p<0.01). (FIG. 4E) qPCR analysis of gene expression at day 5 using the H9 ishcat2 line in the presence or absence of doxycycline. Statistical significance was calculated using the Student's unpaired t-test (*, p<0.005). […] [HX531]=1 μM. Timeline shown on left panel.
# (§3) qPCR. Total RNA was extracted from cultured cells using TRIZOL® (Life Technologies) according to the manufacturer's instructions. After isolation, 2-5 μg of total RNA was immediately subjected to reverse transcription using the Thermoscript™ RT-PCR kit (Life Technologies) in a 20 μL reaction according to the manufacturer's instructions. Resultant cDNA was diluted to 200 μL and utilized for qPCR (25 μL reactions, 1 μL cDNA per reaction) on a BioRad CFX96 detection unit using TAQMAN® Gene Expression Master Mix (Life Technologies) and TAQMAN® primers (Life Technologies). For all experiments, ΔΔCt values for each gene were calculated relative to ribosomal protein S18 (RPS18) RNA levels and converted to fold difference assuming 100% primer efficiency, then normalized to maximum expression levels as indicated in each figure legend.
# To confirm the effects of CHIR 99021 were due to activation of β-catenin, we utilized the H9 ishcat2 line which harbors a doxycycline-inducible β-catenin shRNA cassette^23. […] We extended doxycycline with FGF8b/CHIR 99021 for 4 days and observed a reduction in HOXC6 by 9-fold, HOXC8 by 7-fold, and HOXC9 by 8-fold, which implicates β-catenin in HOX progression to caudal paralogs (FIG. 4E).
# H9 hESCs = test: HOX, OTX2 and T gene expression by RT-PCR/qPCR during hESC differentiation with morphogens; conditions: HX531 1 μM; RT-PCR
# Protocol: hPSC differentiation. hPSCs were washed once with phosphate-buffered saline (PBS; Invitrogen), dissociated with ACCUTASE® (Invitrogen) for 3 min, and collected by centrifugation. hPSCs were then seeded onto VTN-NC-coated plates in E8 medium containing 10 μM ROCK inhibitor (Y27632; R&D Systems). Seeding density was 2×10^5 cells/cm^2. The following day, the cells were switched to E6 medium (same composition as E8 medium minus FGF2 and TGFβ 1). Morphogen treatments were then carried out according to the figures in the text. Cells were supplemented with FGF8b (100-200 ng/ml; Peprotech), CHIR99021 (3-6 μM; Tocris), and/or RA (3 μM; Sigma).
# Reverse transcriptase polymerase chain reaction (RT-PCR). Total RNA was extracted from cells using TRIZOL® reagent (Invitrogen) according to the manufacturer's instructions. RNA was then subjected to reverse-transcription using a Thermoscript™ RT-PCR kit (Invitrogen) in a 20 μL mixture according to the manufacturer's instructions. The resulting cDNA was then amplified in a 25 μL mixture containing 10×PCR buffer, 0.2 mM dNTP, 1.5 mM MgCl2, 0.5 μM of each primer, and 1 U Taq DNA polymerase (Invitrogen). Amplified products were resolved on 2% agarose gels containing SYBR Safe (Invitrogen) and visualized with a VersaDoc (BioRad). Primer sequences can be found in Table 3. All amplifications were carried out for 35 cycles. HOXC5 and HOXC6 were amplified at 58° C., all others with an annealing temperature of 55° C.
# Propagation and differentiation of neuromesodermal progenitors. H9 hESCs (passage 25-45), H9 ishcat2 hESCs (passage 33-43), and IMR90-4 iPSCs (passage 31-40) were maintained in E8 medium on MATRIGEL© (BD Biosciences) as previously described. To initiate differentiation, hPSCs were passaged with ACCUTASE© (Life Technologies) onto vitronectin (VTN-NC)-coated plates at a density of 1×10^5 cells/cm^2 as previously described. The following day, cells were changed to E6 medium. 24 h later, cells were changed to E6 medium containing 200 ng/ml FGF8b (Peprotech). 24 h later, cells were washed once with 2 ml PBS, treated with ACCUTASE® for 2 min, and removed from the surface by gentle pipetting. After collection by centrifugation, cells were gently resuspended in E6 medium containing 200 ng/ml FGF8b and CHIR99021 (CHIR, concentration varied depending on cell line; Tocris) and re-seeded on VTN-NC-coated plates at a density of 1.5×10^5 cells/cm^2. Medium was not changed until 48 h after passaging. This passaging process was repeated on day 3 of CHIR 99021 treatment (re-seed density of 1.2×10^5 cells/cm^2) if extended neuromesodermal propagation was required, and 50 ng/ml GDF11 (Peprotech) was added on day 4 of CHIR 99021 treatment to initiate lumbar patterning. Cells were changed to E6 medium containing 1 μM retinoic acid (RA; Sigma) to facilitate neural transition.
# as §3, with “Resultant cDNA was diluted to 200 μL and utilized for qPCR (25 μL reactions, 1 μL cDNA per reaction) on a BioRad CFX96 detection unit using TAQMAN® Gene Expression Master Mix (Life Technologies) and TAQMAN® primers (Life Technologies).” left out, “legend. […]” for “legend.”
# [3] = neuromesodermal progenitors exposed to E6 medium with the substance
# [4] = doxycycline prior to CHIR 99021 treatment, day 2
# [5] = doxycycline with FGF8b/CHIR 99021 for 4 days
molecule,measurement,setting,value
FGF2: fibroblast growth factor isoform used instead of FGF8b,Sox2 and T (Brachyury) expression,[1],nearly uniform expression of Sox2 and T (Brachyury)
same,Hox1-5 paralog activation,[1],activated Hox1-5 paralogs
"CC1=C(/C=C/C(C)=C/C=C/C(C)=C/C(=O)O)C(C)(C)CCC1 [RA, retinoic acid]",Purity of Pax6+ neuroectoderm,[2]; RA added at any point in neuromesodermal differentiation,> 83%
same,Brachyury+ cells,[2]; [3],43±4%
same,Pax6+ cells,[2]; [3],97±3%
same,Sox2+ cells,[2]; [3],98±4%
same,HoxB4+ cells,NSC cultures; RA added 24 h later (within 24 h of HOXC9 induction),12±4%
same,HoxB4+ cells,NSC cultures; RA added between 24-48 h of neuromesodermal propagation,84±10%
C[C@H]1c2cccc(O)c2C(=O)C2=C(O)[C@]3(O)C(=O)C(C(N)=O)=C(O)[C@@H](N(C)C)[C@@H]3[C@@H](O)[C@@H]21 [doxycycline],CTNNB1 reduction,"H9 ishcat2 line; RA-treated cells, day 2",2 fold
same,CTNNB1 (β-catenin) expression reduction,"H9 ishcat2 line; doxycycline 2 μg/ml prior to CHIR 99021 treatment, day 2",2.5 fold
same,HOXA1 expression decrease,H9 ishcat2 line; [4],15 fold
same,HOXB1 expression decrease,H9 ishcat2 line; [4],47 fold
same,T reduction,"H9 ishcat2 line; doxycycline with FGF8b/CHIR 99021, day 5",30 fold
same,HOXC6 reduction,H9 ishcat2 line; [5],9 fold
same,HOXC8 reduction,H9 ishcat2 line; [5],7 fold
same,HOXC9 reduction,H9 ishcat2 line; [5],8 fold
CN1c2ccc([N+](=O)[O-])cc2N=C(c2ccc(C(=O)O)cc2)c2cc3c(cc21)C(C)(C)CCC3(C)C [HX531],Effect on ability of FGF8b/CHIR 99021 to activate cervical and thoracic HOX paralogs,H9 hESCs,did not prevent
B1,Sox2 and T (Brachyury) expression,[1],nearly uniform expression of Sox2 and T (Brachyury)
same,Hox1-5 paralog activation,[1],activated Hox1-5 paralogs
B2,Sox2 and T (Brachyury) expression,[1],nearly uniform expression of Sox2 and T (Brachyury)
same,Hox1-5 paralog activation,[1],activated Hox1-5 paralogs
